# Results published in US20250179024A1, “AMYLOID AND ASSOCIATED PATHOLOGY MODULATORS AND METHODS THEREOF” (Jawaharlal Nehru Centre for Advanced Scientific Research, priority 2022, published 2025).
# Tests used:
# Aβ fibrils = target: T1, Aβ fibrils (Homo sapiens, UniProt P05067); assay: Dot blot assay of Aβ fibrillar aggregation inhibition (OC antibody); assay type: biochemical; details: Aβ 10 μM; for inhibition of the formation of Aβ fibrils: NMIs 20 μM, PBS pH 7.4, 37° C., 48 h
# T1 construct: is a 42 amino acid proteolytic product from the amyloid precursor protein; purchased Invitrogen
# T1 sequence (P05067 672-713 limits assumed): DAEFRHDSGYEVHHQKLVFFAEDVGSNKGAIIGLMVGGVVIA
# Protocol: Aggregation modulation by toxic Aβ aggregates were assessed and were quantified by dot blot assay. Aβ peptide (10 μM) was dissolved in phosphate buffered saline (PBS, 10 mM, pH 7.4), incubated alone and with NMIs (20 μM) at 37° C. for 48 h. For concentration dependent inhibition, 10 μM Aβ peptide was incubated with 1, 2, 5, 10 and 20 μM of NMIs and incubated. Samples for oligomer inhibition studies were prepared by incubating Aβ alone and with NMIs at 4° C. for 24 and subjected to dot blot analysis. For dissolution studies, Aβ peptide alone was incubated in PBS for 48 h to prepare fibrils and then incubated with NMIs further for 48 h. For dot blot experiment, 5 μL of sample was blotted on activated PVDF (polyvinylidene fluoride) membrane in triplicates and air dried. The membrane was blocked with skimmed milk powder for 1 h at room temperature. The blot paper was washed with tris-buffered saline with 0.01% Tween 20 (TBST) three times for 5 min. Blot paper was treated with fibril specific OC primary antibody (Rabbit, 1:1000 dilution) overnight at 4° C. For oligomers blot A11 anti-oligomer antibody (Rabbit 1:1000) was used. Blot was washed thrice with TBST and treated with HRP-conjugated antirabbit secondary antibody (1:5000 dilutions) for 1 h at room temperature. The bolt was washed thrice for 5 min with TBST and developed with ECL reagent (Biorad) and imaged with ChemiDoc BioRad gel documentation system in autoexposure mode. Blots were analyzed and quantified by ImageJ software. The ability of the NMIs, the compounds of the present disclosure M1-M4 to inhibit Aβ aggregation and dissolve the preformed fibrillar aggregates was evaluated by dot blot assay as explained in Example 2 above. Aβ (10 μM) was incubated alone and with NMIs (20 μM) in phosphate buffer saline (PBS, 10 mM and pH 7.4) at 37° C. for 48 h to form Aβ fibrillar aggregates. The samples were blotted and probed with fibril-selective OC antibody (rabbit anti-human amyloid fibrils). […] M3 was further assessed for inhibitory effect at lower concentrations. […] It has been observed that the oligomers are a highly toxic species compared to Aβ fibrillar aggregates. The ability of NMIs (M3) to inhibit the formation of Aβ oligomers was assessed by dot blot assay. Aβ peptide (10 μM) was incubated with NMIs at 4° C. for 24 h followed by probing with A11 oligomer-specific antibody. […] Native PAGE and western blot analysis was carried out to understand the size distribution of Aβ aggregated species. […] In order to analyse the higher order aggregates not permeable in the gel matrix and the morphological characteristics, Aβ samples were subjected to atomic force microscopy (AFM) imaging.
# Aβ42 = target: T2, Aβ42 (Homo sapiens, UniProt P05067); assay: Native PAGE and western blot of Aβ aggregated species; assay type: biochemical; details: NMIs 20 μM; for size distribution of Aβ aggregated species, aggregation inhibition: Aβ 10 μM, FIGS. 1B and 2B; for LMW and HMW Aβ aggregates, dissolution samples: Aβ aggregates 10 μM, FIG. 4B
# T2 construct: is a 42 amino acid proteolytic product from the amyloid precursor protein; purchased Invitrogen
# T2 sequence (P05067 672-713 limits assumed): as above
# Protocol: The samples were prepared by incubating Aβ42 with specific concentration of NMI compounds of present disclosure and metal ions for 48 h and then subjected to 6% native polyacrylamide gel electrophoresis (Native-PAGE) in tris-glycine buffer. The lower molecular weight aggregates permeabilized through the gel and resolved in the gel. Higher molecular aggregates stuck in the upper part of wells and potentially carried in gel. Then the protein was transferred to PVDF membrane for 4 h at cold condition maintained using ice cold transfer buffer and immersing the transfer apparatus in ice. Then the blots were continued similar to dot blots. […] It has been observed that the oligomers are a highly toxic species compared to Aβ fibrillar aggregates. The ability of NMIs (M3) to inhibit the formation of Aβ oligomers was assessed by dot blot assay. Aβ peptide (10 μM) was incubated with NMIs at 4° C. for 24 h followed by probing with A11 oligomer-specific antibody. […] Native PAGE and western blot analysis was carried out to understand the size distribution of Aβ aggregated species. […] In order to analyse the higher order aggregates not permeable in the gel matrix and the morphological characteristics, Aβ samples were subjected to atomic force microscopy (AFM) imaging.
# Aβ = target: T3, Aβ (Homo sapiens, UniProt P05067); assay: AFM imaging of Aβ samples; details: for morphology of Aβ sample, aggregation inhibition: Aβ 10 μM, FIG. 1C
# T3 construct: is a 42 amino acid proteolytic product from the amyloid precursor protein; purchased Invitrogen
# T3 sequence (P05067 672-713 limits assumed): as above
# Protocol: AFM imaging was done to understand the morphological characteristics of Aβ and NMI treated samples. The samples from Aβ aggregation inhibition and dissolution studies were used for AFM imaging. 25 μL of sample was drop-casted on freshly cleaved mica substrate. The Aβ samples were allowed to adhere to substrate surface for 15 min, washed with filtered MiliQ water and air dried. The samples were imaged in Scan assist Air mode in Bioscope resolve AFM system (Bruker). The images were processed and analyzed using NanoScope analysis software. […] It has been observed that the oligomers are a highly toxic species compared to Aβ fibrillar aggregates. The ability of NMIs (M3) to inhibit the formation of Aβ oligomers was assessed by dot blot assay. Aβ peptide (10 μM) was incubated with NMIs at 4° C. for 24 h followed by probing with A11 oligomer-specific antibody. […] Native PAGE and western blot analysis was carried out to understand the size distribution of Aβ aggregated species. […] In order to analyse the higher order aggregates not permeable in the gel matrix and the morphological characteristics, Aβ samples were subjected to atomic force microscopy (AFM) imaging.
# [1] = Metal chelation by UV-visible absorbance and fluorescence spectra; assay type: physicochemical; details: for interaction with Cu (II) and Zn (II), change in absorbance spectra / chelation among different physiologically relevant metals, absorbance: NMIs 20 μM; for chelation among different physiologically relevant metals, absorbance: metals 40 μM
# Text: The compounds of the present disclosure (NMIs) were designed to chelate with metals (Cu and Zn) and alleviate the metal-dependent Aβ toxicity. […] The change in absorbance and fluorescence spectra of NMIs were monitored to understand the interaction with Cu(II) and Zn(II). […] The fluorescence intensity of M3 at 525 nm decreased with the increasing concentration of Cu(II) or Zn(II) (FIGS. 6(A & B)).
SMILES,inhibition of the formation of Aβ fibrils (Aβ fibrils),"size distribution of Aβ aggregated species, aggregation inhibition (Aβ42)","LMW and HMW Aβ aggregates, dissolution samples (Aβ42)","morphology of Aβ sample, aggregation inhibition (Aβ; NMIs 20 μM)","interaction with Cu (II) and Zn (II), change in absorbance spectra ([1]; Cu or Zn 2.5 to 40 μM)","chelation among different physiologically relevant metals, absorbance [1]",IC50 (Aβ fibrils),inhibition of Aβ aggregation (Aβ fibrils; 0.1 molar ratio),inhibition of Aβ aggregation (Aβ fibrils; 0.2 molar ratio),inhibition of Aβ aggregation (Aβ fibrils; 0.5 molar ratio),inhibition of Aβ aggregation (Aβ fibrils; 1 molar ratio),inhibition of Aβ aggregation (Aβ fibrils; 2 molar ratio),"morphology of metal-dependent Aβ aggregation (Aβ; Aβ 10 μM with Cu (II) or Zn (II), NMIs 20 μM, FIGS. 1E and 1F)","morphology of preformed fibrils after treatment (Aβ; Aβ aggregates 10 μM, FIG. 4C)","fluorescence intensity at 525 nm with increasing concentration of Cu(II) or Zn(II) ([1]; 20 μM, Cu or Zn 2.5 to 40 μM)"
"CN(C)c1ccc2c3c(cccc13)C(=O)N(CCc1ccc(O)c(O)c1)C2=O [M1, 2-(3,4-dihydroxyphenethyl)-6-(dimethylamino)-1H-benzo[de]isoquinoline-1,3(2H)-dione]",~95%,reduction of different Aβ species,effectively inhibited the formation of LMW and HMW Aβ aggregates,amorphous structures,effectively interacted with Cu (II) and Zn (II),selectively chelated with Cu(II) and Zn (II),,,,,,,,,
"O=C1c2cccc3c(N(Cc4ccccn4)Cc4ccccn4)ccc(c23)C(=O)N1CCc1ccc(O)c(O)c1 [M3, 6-(bis(pyridin-2-ylmethyl)amino)-2-(3,4-dihydroxyphenethyl)-1H-benzo[de]isoquinoline-1,3(2H)-dione]",94%,reduction of different Aβ species,effectively inhibited the formation of LMW and HMW Aβ aggregates,amorphous structures,effectively interacted with Cu (II) and Zn (II),selectively chelated with Cu(II) and Zn (II),1000 nM,37%,42%,55%,74%,90%,minimal Aβ fibrils and mostly small amorphous clumps,amorphous clumps,decreased
